1 compound from patent publication US10017791B2, “Coryneform bacterium transformant and process for producing 4-hydroxybenzoic acid or salt thereof using the same” (GREEN PHENOL DEVELOPMENT CO., LTD., priority 2014, dated 2018) can be followed below.

pIC50: −log10 of the molar value.

The assay concerns the target T1, chorismate-pyruvate lyase of Citrobacter youngae (Citrobacter youngae, UniProt A0ABM8MN84, A17E/A70K/G54A/S20A/T66M).
T1 sequence (A0ABM8MN84 1-165 A17E/S20A/G54A/T66M/A70K): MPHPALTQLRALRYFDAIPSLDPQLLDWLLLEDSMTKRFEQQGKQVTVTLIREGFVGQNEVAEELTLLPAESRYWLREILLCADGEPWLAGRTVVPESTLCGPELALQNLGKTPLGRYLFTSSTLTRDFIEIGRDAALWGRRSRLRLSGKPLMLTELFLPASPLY
The assay can be described thus: Product inhibition of chorismate-pyruvate lyase activity by 4-HBA (IC50). Format: biochemical. The settings on record: cell lysate supernatant of strain HBA13.

Broadly, the pIC50 is −log10 of the IC50, conventionally taken in molar units. A lower pIC50 goes with a large IC50. Turning to `O=C(O)c1ccc(O)cc1` [Strain 4-HBA, 4-hydroxybenzoic acid], the pIC50 was 4.17.
